The source of these data is patent publication US9974869B2, “Chelated PSMA inhibitors” (Cancer Targeted Technology LLC, priority 2011, dated 2018).

The target in one data set is PSMA (Homo sapiens, UniProt Q04609). Description: PSMA inhibition (IC50, mode of inhibition). Format: biochemical.
Data set [1] can be described thus: Acid and base stability noted in preliminary labeling and deprotection studies. The class given is physicochemical. As to conditions: serine-based scaffold; beta-elimination under base, P—N bond labile to acid. From the text:
The instability of CTT54 and its protected precursors under basic conditions is due to beta-elimination on serine to yield a dehydroalanine derivative. The acid instability was centered on the P—N bond of CTT54, which precluded the use of acid modifiers in HPLC mobile phases. […] The homoserine analog was known initially as hCTT54 and later, more formally, as CTT1000. The 2(3-hydroxypropyl)glycine is known as TG97 and CTT2000. The base stability was expected as the beta-elimination problem associated with phosphorylated serine residue would be blocked. However, the acid stability was unexpected.

The subject of a further data set is tumor. Put plainly: Uptake over time in the fraction associated with the tumor. As to conditions: in vivo. From the text:
Following administration of the chelated PSMA inhibitors herein, the imaging time may be altered to alter and/or optimize imaging characteristics.

Molecules are shown by their SMILES.

Chain of PSMA (Q04609 whole entry): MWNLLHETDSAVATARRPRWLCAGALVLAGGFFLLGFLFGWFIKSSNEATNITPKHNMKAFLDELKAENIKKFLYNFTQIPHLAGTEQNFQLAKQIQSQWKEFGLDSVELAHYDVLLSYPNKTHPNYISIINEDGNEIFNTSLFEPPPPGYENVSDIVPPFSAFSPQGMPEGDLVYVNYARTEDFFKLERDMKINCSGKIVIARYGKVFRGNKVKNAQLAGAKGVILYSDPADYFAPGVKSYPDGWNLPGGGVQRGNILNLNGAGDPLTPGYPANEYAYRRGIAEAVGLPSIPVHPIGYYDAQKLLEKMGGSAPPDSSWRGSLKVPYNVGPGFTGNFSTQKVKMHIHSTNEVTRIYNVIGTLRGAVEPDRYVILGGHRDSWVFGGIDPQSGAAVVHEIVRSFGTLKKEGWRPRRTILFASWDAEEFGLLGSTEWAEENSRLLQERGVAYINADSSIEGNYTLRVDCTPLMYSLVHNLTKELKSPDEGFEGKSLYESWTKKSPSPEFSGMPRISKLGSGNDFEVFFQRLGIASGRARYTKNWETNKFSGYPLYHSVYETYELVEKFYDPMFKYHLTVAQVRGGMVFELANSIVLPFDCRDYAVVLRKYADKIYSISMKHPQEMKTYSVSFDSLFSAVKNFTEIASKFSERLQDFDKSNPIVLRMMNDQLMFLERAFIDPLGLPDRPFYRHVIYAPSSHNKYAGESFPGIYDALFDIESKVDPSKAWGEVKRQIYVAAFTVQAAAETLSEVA

Consider `N[C@@H](CCC(=O)N[C@@H](CCOP(=O)(O)N[C@@H](CCC(=O)O)C(=O)O)C(=O)O)C(=O)O` [CTT1000], for which the IC50 against PSMA turned out to be 15 nM. For the molecule `N[C@@H](CCC(=O)N[C@@H](COP(=O)(O)N[C@@H](CCC(=O)O)C(=O)O)C(=O)O)C(=O)O` [CTT-54, L-[…]- glutamyl-O-[{[(1S)-1,3-dicarboxy-propyl]amino} (hydroxy)phosphoryl]-L-serine], in data set [1], the “acid and base stability” value is “acid and base stability issues were noted”. Moreover, the “uptake in the fraction associated with the tumor over time” value in the data set with tumor is given as “continues to increase over time”.

In general, IC50 refers to the midpoint of a concentration-inhibition curve.
